Data: publication PMC9007350, “Aurintricarboxylic acid is a canonical disruptor of the TAZ-TEAD transcriptional complex” (PLoS ONE, 2022)

Biological target: T1, TAZ-TEAD complex (human TAZ (23-57) probe, human TEAD4 (217-434)) (Homo sapiens, UniProt Q15561)
T1 construct: made in house
Assay: TAZ-TEAD fluorescence polarization assay
Format: binding
Conditions: comparison with ATA, S2 Fig
Description: Human YAP (61–100), human TAZ (23–57) and mouse Vgll1 (26–51) peptide probes were used; all the probes had carboxyfluorescein labels. Human TEAD4 (217–434) was used in the assay at a concentration of 350 nM and the peptide probe concentration was 25 nM. Disruptors were titrated at concentrations ranging from 0–150 μM to the probe-TEAD complex, and the mixtures were incubated at 25°C for 20 min. Then, polarization measurements were taken using a Victor3 (PerkinElmer) plate reader.

T1 sequence (Q15561 217-434, one chain of several): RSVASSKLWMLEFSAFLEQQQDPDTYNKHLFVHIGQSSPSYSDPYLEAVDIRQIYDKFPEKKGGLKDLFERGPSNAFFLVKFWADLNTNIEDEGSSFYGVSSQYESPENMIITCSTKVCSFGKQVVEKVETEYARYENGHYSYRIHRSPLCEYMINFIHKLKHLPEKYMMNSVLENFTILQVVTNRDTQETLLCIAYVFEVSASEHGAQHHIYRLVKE

Substance: verteporfin
- effect in the TAZ-TEAD FP assay (in words): did not display an effect
